Reference: patent US6355799B1, “Substituted benzene compounds, process for their preparation, and herbicidal and defoliant compositions containing them” (ISK Americas Incorporated, priority 1997, dated 2002)

Columns and labels:
Format in all cases: in vivo
[1] = tested on: upland rice (Oryza sp., var. Tebonnet, RICE); assay: Pre-emerge test, crop safety; conditions: for phytotoxicity rating RICE (crop damage): pre-emerge, 14 days after application, scale 0-100; for Pre-emerge Herbicidal Activity RICE: crop damage rating 0-100, 14 days after application
Outline: (§1)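 Herbicidal damage is scored 0 (none) to 100 (complete plant death) two weeks after a simulated field spray. Rates span 15–1000 g ai/ha, delivered in acetone at 187 l/ha. For post-emergence treatments, plants have 2–3 leaves and the spray carries 0.25% v/v non-ionic surfactant.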

[2] = tested on: field corn (Zea mays L., var. Dekalb 535, CORN); assay: Pre-emerge test, crop safety; conditions: for phytotoxicity rating CORN (crop damage): pre-emerge, 14 days after application, scale 0-100; for Pre-emerge Herbicidal Activity CORN: crop damage rating 0-100, 14 days after application
Outline: as §1

[3] = tested on: upland rice (Oryza sp., var. Tebonnet, RICE); assay: Post-emerge test, crop safety; conditions: post-emerge, 14 days after application, rating scale 0-100
Outline: (§2)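 Sandy loam pots; pre-emerge: sown 1 d pre-spray, surface-watered after, then bottom-watered. Post-emerge: sown 8–21 d before, 2–3 leaf stage, + 0.25% v/v NIS, bottom-watered. Acetone, 187 l/ha track spray, 15–1000 g ai/ha. 0–100 injury score, day 14.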

[4] = tested on: field corn (Zea mays L., var. Dekalb 535, CORN); assay: Post-emerge test, crop safety; conditions: post-emerge, 14 days after application, rating scale 0-100
Outline: as §2

[5] = tested on: ivyleaf morningglory (Ipomoea hederacea, IPOHE); assay: Pre-emerge test, greenhouse herbicide activity screening; conditions: for phytotoxicity rating IPOHE: pre-emerge, 14 days after application, scale 0-100; for Pre-emerge Herbicidal Activity IPOHE: phytotoxicity rating 0-100, 14 days after application
Outline: as §2

[6] = tested on: lambsquarters (Chenopodium album, CHEAL); assay: as above; conditions: for phytotoxicity rating CHEAL: pre-emerge, 14 days after application, scale 0-100; for Pre-emerge Herbicidal Activity CHEAL: phytotoxicity rating 0-100, 14 days after application
Outline: as §2

[7] = tested on: sicklepod (Cassia obtusifolia, CASOB); assay: as above; conditions: for phytotoxicity rating CASOB: pre-emerge, 14 days after application, scale 0-100; for Pre-emerge Herbicidal Activity CASOB: phytotoxicity rating 0-100, 14 days after application
Outline: as §2

[8] = tested on: barnyardgrass (Echinochloa crus-galli, ECHCG); assay: as above; conditions: for phytotoxicity rating ECHCG: pre-emerge, 14 days after application, scale 0-100; for Pre-emerge Herbicidal Activity ECHCG: phytotoxicity rating 0-100, 14 days after application
Outline: as §2

[9] = tested on: green foxtail (Setaria viridis, SETVI); assay: as above; conditions: for phytotoxicity rating SETVI: pre-emerge, 14 days after application, scale 0-100; for Pre-emerge Herbicidal Activity SETVI: phytotoxicity rating 0-100, 14 days after application
Outline: as §2

[10] = tested on: velvetleaf (Abutilon theophrasti, ABUTH); assay: as above; conditions: for phytotoxicity rating ABUTH: pre-emerge, 14 days after application, scale 0-100; for Pre-emerge Herbicidal Activity ABUTH: phytotoxicity rating 0-100, 14 days after application
Outline: as §2

[11] = tested on: large crabgrass (Digitaria sanguinalis, DIGSA); assay: as above; conditions: for phytotoxicity rating DIGSA: pre-emerge, 14 days after application, scale 0-100; for Pre-emerge Herbicidal Activity DIGSA: phytotoxicity rating 0-100, 14 days after application
Outline: as §2

[12] = tested on: johnsongrass (Sorghum halepense, SORHA); assay: as above; conditions: for phytotoxicity rating SORHA: pre-emerge, 14 days after application, scale 0-100; for Pre-emerge Herbicidal Activity SORHA: phytotoxicity rating 0-100, 14 days after application
Outline: as §2

[13] = tested on: redroot pigweed (Amaranthus retroflexus, AMARE); assay: as above; conditions: for phytotoxicity rating AMARE: pre-emerge, 14 days after application, scale 0-100; for Pre-emerge Herbicidal Activity AMARE: phytotoxicity rating 0-100, 14 days after application
Outline: as §2

[14] = tested on: ivyleaf morningglory (Ipomoea hederacea, IPOHE); assay: Post-emerge test, greenhouse herbicide activity screening; conditions: post-emerge, 14 days after application, rating scale 0-100
Outline: (§3)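 Plants grown in 10 cm pots of sandy loam mix received acetone-dissolved compounds through a moving flat-fan nozzle. Doses ranged from 15 to 1000 g ai/ha. Pre-emerge pots were seeded one day earlier, post-emerge pots 8–21 days earlier. Fourteen days on, each pot was graded 0–100 for damage.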

[15] = tested on: lambsquarters (Chenopodium album, CHEAL); assay: as above; conditions: post-emerge, 14 days after application, rating scale 0-100
Outline: as §3

[16] = tested on: sicklepod (Cassia obtusifolia, CASOB); assay: as above; conditions: post-emerge, 14 days after application, rating scale 0-100
Outline: as §3

[17] = tested on: barnyardgrass (Echinochloa crus-galli, ECHCG); assay: as above; conditions: post-emerge, 14 days after application, rating scale 0-100
Outline: as §3

[18] = tested on: green foxtail (Setaria viridis, SETVI); assay: as above; conditions: post-emerge, 14 days after application, rating scale 0-100
Outline: as §3

[19] = tested on: velvetleaf (Abutilon theophrasti, ABUTH); assay: as above; conditions: post-emerge, 14 days after application, rating scale 0-100
Outline: as §3

[20] = tested on: redroot pigweed (Amaranthus retroflexus, AMARE); assay: as above; conditions: post-emerge, 14 days after application, rating scale 0-100
Outline: as §3

[21] = tested on: large crabgrass (Digitaria sanguinalis, DIGSA); assay: as above; conditions: post-emerge, 14 days after application, rating scale 0-100
Outline: as §3

[22] = tested on: johnsongrass (Sorghum halepense, SORHA); assay: as above; conditions: post-emerge, 14 days after application, rating scale 0-100
Outline: as §3

`COc1c(C#N)cc(F)c(-n2c(=O)cc(C(F)(F)F)n(C)c2=O)c1NC(=O)C=Cc1ccccc1` [2-179] was tested, and the “phytotoxicity rating RICE (crop damage)” value ([1]; 63 g ai/ha) was 20, the “phytotoxicity rating RICE (crop damage)” value ([1]; 250 g ai/ha) was 60 and the “phytotoxicity rating CORN (crop damage)” value ([2]; 63 g ai/ha) was 0. For the same compound, the “phytotoxicity rating CORN (crop damage)” value ([2]; 250 g ai/ha) was 10, the “RICE phytotoxicity rating (crop damage)” value ([3]; 63 g ai/ha) was 30 and the “RICE phytotoxicity rating (crop damage)” value ([3]; 250 g ai/ha) was 60. For the same compound, the “CORN phytotoxicity rating (crop damage)” value ([4]; 63 g ai/ha) was 15, the “CORN phytotoxicity rating (crop damage)” value ([4]; 250 g ai/ha) was 15 and the “phytotoxicity rating IPOHE” value ([5]; 63 g ai/ha) was 60. The “phytotoxicity rating IPOHE” value ([5]; 250 g ai/ha) was 70, the “phytotoxicity rating CHEAL” value ([6]; 63 g ai/ha) was 100 and the “phytotoxicity rating CHEAL” value ([6]; 250 g ai/ha) was 100. The “phytotoxicity rating CASOB” value ([7]; 63 g ai/ha) was 30, the “phytotoxicity rating CASOB” value ([7]; 250 g ai/ha) was 100 and the “phytotoxicity rating ECHCG” value ([8]; 63 g ai/ha) was 20. For the same compound, the “phytotoxicity rating ECHCG” value ([8]; 250 g ai/ha) was 85, the “phytotoxicity rating SETVI” value ([9]; 63 g ai/ha) was 50 and the “phytotoxicity rating SETVI” value ([9]; 250 g ai/ha) was 90. The “phytotoxicity rating ABUTH” value ([10]; 63 g ai/ha) was 100, the “phytotoxicity rating ABUTH” value ([10]; 250 g ai/ha) was 100 and the “phytotoxicity rating DIGSA” value ([11]; 63 g ai/ha) was 20. The “phytotoxicity rating DIGSA” value ([11]; 250 g ai/ha) was 95, the “phytotoxicity rating SORHA” value ([12]; 63 g ai/ha) was 30 and the “phytotoxicity rating SORHA” value ([12]; 250 g ai/ha) was 95. The “phytotoxicity rating AMARE” value ([13]; 63 g ai/ha) was 100, the “phytotoxicity rating AMARE” value ([13]; 250 g ai/ha) was 100 and the IPOHE phytotoxicity rating ([14]; 63 g ai/ha) was 80. The IPOHE phytotoxicity rating ([14]; 250 g ai/ha) was 100, the CHEAL phytotoxicity rating ([15]; 63 g ai/ha) was 80 and the CHEAL phytotoxicity rating ([15]; 250 g ai/ha) was 100. The CASOB phytotoxicity rating ([16]; 63 g ai/ha) was 80, the CASOB phytotoxicity rating ([16]; 250 g ai/ha) was 100 and the ECHCG phytotoxicity rating ([17]; 63 g ai/ha) was 70. For the same compound, the ECHCG phytotoxicity rating ([17]; 250 g ai/ha) was 50, the SETVI phytotoxicity rating ([18]; 63 g ai/ha) was 30 and the SETVI phytotoxicity rating ([18]; 250 g ai/ha) was 55. It also gave an ABUTH phytotoxicity rating ([19]; 63 g ai/ha) of 100, an ABUTH phytotoxicity rating ([19]; 250 g ai/ha) of 100 and an AMARE phytotoxicity rating ([20]; 63 g ai/ha) of 100. It also gave an AMARE phytotoxicity rating ([20]; 250 g ai/ha) of 100, a DIGSA phytotoxicity rating ([21]; 63 g ai/ha) of 0 and a DIGSA phytotoxicity rating ([21]; 250 g ai/ha) of 50. For the same compound, the SORHA phytotoxicity rating ([22]; 63 g ai/ha) was 10.

In the case of `CCOC(=O)COc1c(Cl)cc(F)c(-n2c(=O)cc(C(F)(F)F)n(C)c2=O)c1NC(=O)c1ccc2ccccc2c1` [2-189], the “Pre-emerge Herbicidal Activity RICE” value ([1]; 40.5 g ai/ha) is reported as 0, the “Pre-emerge Herbicidal Activity RICE” value ([1]; 162 g ai/ha) is reported as 0 and the “Pre-emerge Herbicidal Activity CORN” value ([2]; 40.5 g ai/ha) is reported as 0. For the same compound, the “Pre-emerge Herbicidal Activity CORN” value ([2]; 162 g ai/ha) was 0, the “RICE phytotoxicity rating (crop damage)” value ([3]; 40.5 g ai/ha) was 0 and the “RICE phytotoxicity rating (crop damage)” value ([3]; 162 g ai/ha) was 5. For the same compound, the “CORN phytotoxicity rating (crop damage)” value ([4]; 40.5 g ai/ha) was 0, the “CORN phytotoxicity rating (crop damage)” value ([4]; 162 g ai/ha) was 5 and the “Pre-emerge Herbicidal Activity IPOHE” value ([5]; 40.5 g ai/ha) was 0. The “Pre-emerge Herbicidal Activity IPOHE” value ([5]; 162 g ai/ha) was 20, the “Pre-emerge Herbicidal Activity CHEAL” value ([6]; 40.5 g ai/ha) was 100 and the “Pre-emerge Herbicidal Activity CHEAL” value ([6]; 162 g ai/ha) was 100. For the same compound, the “Pre-emerge Herbicidal Activity CASOB” value ([7]; 40.5 g ai/ha) was 0, the “Pre-emerge Herbicidal Activity CASOB” value ([7]; 162 g ai/ha) was 10 and the “Pre-emerge Herbicidal Activity ECHCG” value ([8]; 40.5 g ai/ha) was 0. For the same compound, the “Pre-emerge Herbicidal Activity ECHCG” value ([8]; 162 g ai/ha) was 0, the “Pre-emerge Herbicidal Activity SETVI” value ([9]; 40.5 g ai/ha) was 0 and the “Pre-emerge Herbicidal Activity SETVI” value ([9]; 162 g ai/ha) was 0. For the same compound, the “Pre-emerge Herbicidal Activity ABUTH” value ([10]; 40.5 g ai/ha) was 70, the “Pre-emerge Herbicidal Activity ABUTH” value ([10]; 162 g ai/ha) was 100 and the “Pre-emerge Herbicidal Activity DIGSA” value ([11]; 40.5 g ai/ha) was 0. For the same compound, the “Pre-emerge Herbicidal Activity DIGSA” value ([11]; 162 g ai/ha) was 0, the “Pre-emerge Herbicidal Activity SORHA” value ([12]; 40.5 g ai/ha) was 0 and the “Pre-emerge Herbicidal Activity SORHA” value ([12]; 162 g ai/ha) was 0. For the same compound, the “Pre-emerge Herbicidal Activity AMARE” value ([13]; 40.5 g ai/ha) was 95, the “Pre-emerge Herbicidal Activity AMARE” value ([13]; 162 g ai/ha) was 90 and the IPOHE phytotoxicity rating ([14]; 40.5 g ai/ha) was 60. It also gave an IPOHE phytotoxicity rating ([14]; 162 g ai/ha) of 100, a CHEAL phytotoxicity rating ([15]; 40.5 g ai/ha) of 100 and a CHEAL phytotoxicity rating ([15]; 162 g ai/ha) of 100. The CASOB phytotoxicity rating ([16]; 40.5 g ai/ha) was 40, the CASOB phytotoxicity rating ([16]; 162 g ai/ha) was 60 and the ECHCG phytotoxicity rating ([17]; 40.5 g ai/ha) was 0. It also gave an ECHCG phytotoxicity rating ([17]; 162 g ai/ha) of 10, an SETVI phytotoxicity rating ([18]; 40.5 g ai/ha) of 0 and an SETVI phytotoxicity rating ([18]; 162 g ai/ha) of 0. It also gave an ABUTH phytotoxicity rating ([19]; 40.5 g ai/ha) of 85, an ABUTH phytotoxicity rating ([19]; 162 g ai/ha) of 100 and an AMARE phytotoxicity rating ([20]; 40.5 g ai/ha) of 100. The AMARE phytotoxicity rating ([20]; 162 g ai/ha) was 100, the DIGSA phytotoxicity rating ([21]; 40.5 g ai/ha) was 0 and the DIGSA phytotoxicity rating ([21]; 162 g ai/ha) was 0. It also gave an SORHA phytotoxicity rating ([22]; 40.5 g ai/ha) of 0 and an SORHA phytotoxicity rating ([22]; 162 g ai/ha) of 0.
